Test results reported in patent US10420734B2, “Method of treating cancer using selective estrogen receptor modulators” (Duke University, priority 2014, dated 2019).

How the values were obtained:
ESR1 [1] = molecular target: T1, ESR1 (Mus musculus, UniProt P19785); experiment: Uterine wet weight analysis in ovariectomized C57Bl/6 mice; type: in vivo; conditions: for uterine wet weight, single agent: without E2
T1 construct: tissue Charles River (mice); host or cells: uterus of ovariectomized female C57Bl/6 mice
T1 sequence (P19785 1-599): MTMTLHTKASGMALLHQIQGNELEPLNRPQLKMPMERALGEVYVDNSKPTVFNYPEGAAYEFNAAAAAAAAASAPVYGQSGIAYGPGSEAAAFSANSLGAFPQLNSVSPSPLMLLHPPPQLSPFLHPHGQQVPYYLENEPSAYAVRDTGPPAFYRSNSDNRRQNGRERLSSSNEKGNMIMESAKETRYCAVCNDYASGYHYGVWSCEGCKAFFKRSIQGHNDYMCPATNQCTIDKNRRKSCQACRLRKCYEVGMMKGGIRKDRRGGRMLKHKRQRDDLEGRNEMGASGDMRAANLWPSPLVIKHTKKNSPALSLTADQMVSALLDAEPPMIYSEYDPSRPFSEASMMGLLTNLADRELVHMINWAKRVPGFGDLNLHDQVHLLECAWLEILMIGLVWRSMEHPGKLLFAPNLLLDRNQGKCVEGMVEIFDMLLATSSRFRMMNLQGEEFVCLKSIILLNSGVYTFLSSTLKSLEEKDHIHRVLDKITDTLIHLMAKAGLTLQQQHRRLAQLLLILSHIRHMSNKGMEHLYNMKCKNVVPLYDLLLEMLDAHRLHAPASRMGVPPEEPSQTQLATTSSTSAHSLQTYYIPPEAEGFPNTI
Experimental: Uterine wet weight analysis: Ovariectomized (10 days prior) female C57Bl/6 mice (Charles River) were treated daily (n=5) for 3 days with vehicle or estradiol benzoate (10 μg/kg sc) as well as vehicle, raloxifene (10 mg/kg sc), or RAD1901 (0.1-100 mg/kg sc). Ligands were dissolved in corn oil (Spectrum chemicals). On day 4, mice were euthanized and tissues were retained for analysis. Uterine wet weight was calculated as a ratio of uterus weight upon removal to body weight post-mortem.
As a first step, the impact of RAD1901 on uterine wet weight in mice was evaluated. For this study, increasing doses of RAD1901 was administered daily to ovariectomized C57Bl/6 mice receiving vehicle alone or E2 (10 μg/kg; a physiological replacement dose). A group of mice receiving 10 mg/kg of raloxifene was included for comparative purposes and for reference. Ovariectomized C57Bl/6 mice (n=5) were treated daily for 3 days with (FIG. 8A) vehicle or (FIG. 8B) estradiol (10 μg/kg) together with vehicle, Ralox (10 mg/kg) or RAD1901 (RAD), ([…]). At euthanasia, body weight as well as uterine wet weight was measured prior to cryopreservation of the uterus. […] For FIG. 8C, ESR1 and β-actin expression in extracts made from pulverized uterine tissues were analyzed by immunoblot as in FIG. 5 (left). ESR1 expression relative to β-actin was quantitated as in FIG. 6 (right). Significant downregulation (*p<0.05) of ESR1 was determined by ANOVA followed by Bonferroni comparison.

ESR1 [2] = molecular target: T2, ESR1 (Homo sapiens, UniProt P03372); experiment: ESR1 expression in MCF7 cells (immunoblot, mRNA, MG132 pre-treatment); type: cell-based
T2 sequence (P03372 1-595): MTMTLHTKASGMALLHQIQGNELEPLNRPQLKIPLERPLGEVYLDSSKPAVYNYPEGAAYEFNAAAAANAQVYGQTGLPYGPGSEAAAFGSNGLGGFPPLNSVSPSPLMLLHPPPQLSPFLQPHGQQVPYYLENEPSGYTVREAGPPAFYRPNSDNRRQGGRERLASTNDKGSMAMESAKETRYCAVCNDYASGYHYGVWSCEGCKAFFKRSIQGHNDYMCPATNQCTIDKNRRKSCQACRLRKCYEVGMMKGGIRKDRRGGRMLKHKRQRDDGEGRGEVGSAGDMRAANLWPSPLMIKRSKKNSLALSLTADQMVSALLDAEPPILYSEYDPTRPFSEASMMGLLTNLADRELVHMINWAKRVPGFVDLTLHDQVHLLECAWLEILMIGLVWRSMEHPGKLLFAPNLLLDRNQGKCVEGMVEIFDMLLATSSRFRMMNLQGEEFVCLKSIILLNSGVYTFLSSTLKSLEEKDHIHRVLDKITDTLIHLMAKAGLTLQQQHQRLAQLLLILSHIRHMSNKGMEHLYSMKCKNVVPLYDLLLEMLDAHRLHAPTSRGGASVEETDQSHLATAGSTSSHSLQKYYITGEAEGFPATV
Experimental: Protein expression was analyzed as described (Wittmann et al., (2007) Cancer Res 67 (19):9549-9560) using antibodies purchased from Sigma-Aldrich—A5441 (β-actin) and Santa Cruz Biotechnology—sc-6259 (cytokeratin 18), sc-20680 (lamin A), sc-5546 (α-tubulin) and sc-8005 (ESR1).
Expression of ESR1 and loading control cytokeratin 18 (CK18—FIG. 7A) in whole cell extracts were detected by immunoblot (top). ESR1 levels relative to CK18 were quantitated by densitometry using Adobe Photoshop (bottom). […] ESR1 expression was detected as in FIG. 6A. For FIGS. 6C-6D, LTED MCF7 cells were plated in phenol red free media supplemented with FBS that was stripped of growth factors twice using charcoal. For FIG. 6C, after 48 hours, cells were treated for 24 hours with E2 (10^−7 M) or SERDs (10^−6 M) and ESR1 was analyzed as in FIG. 6A.

## CCNCCc1ccc(CN(CC)c2cc(OC)ccc2[C@@H]2CCc3cc(O)ccc3C2)cc1 [RAD1901, (R)-6-{2-{ethyl[4-(2-ethylaminoethyl)benzyl]amino}-4-methoxyphenyl}-5,6,7,8-tetrahydronaphthalen-2-ol]
ESR1 [1]; 0.3 mg/kg
  ESR1 expression in uterine tissue (immunoblot): no decrease in ESR1 expression
ESR1 [1]; 0.3 mg/kg sc daily for 3 days
  uterine wet weight, single agent: statistically significant increase
ESR1 [1]; RAD1901 0.3-100 mg/kg
  ESR1 expression in uterine tissue (immunoblot): dose dependent downregulation
ESR1 [1]; doses of 1 mg/kg and above, sc daily for 3 days
  uterine wet weight, single agent: indistinguishable from vehicle treated animals
ESR1 [1]; with estradiol 10 μg/kg, RAD1901 0.3-100 mg/kg
  E2-dependent increases in uterine wet weight: inhibit E2-dependent increases in uterine wet weight
ESR1 [2]
  ESR1 mRNA expression: no effect
ESR1 [2]; 24 hours, RAD1901 10^-11-10^-5 M
  ESR1 expression (immunoblot): significantly downregulated
ESR1 [2]; MG132 1 hour pre-treatment, 6 hours ligand
  downregulation of ESR1 after pre-treatment with proteasome inhibitor MG132: completely blocked
